Test results: PubChem BioAssay AID2060888 (Molecular Pharmacology Branch, DTP, NCI, 2025)

Test system: 695427-040-R-J1-PDC complex spheroid viability
Experiment: Anticancer human tumor 695427-040-R-J1-PDC patient-derived colon adenocarcinoma cell line growth inhibition [RAS]
Settings: for IC50: curve of first compound; for viability, T/C: stronger effect = lower value
In short: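 Agents were tested in combination matrices in half-log decrements from a top concentration at or near clinical Cmax (10 microM if undetermined). Targets were multi-cell spheroids of tumour lines plus HUVEC and MSC stromal cells.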

[1] = second compound 0.000949 µM, first compound 0.0316 µM
[2] = second compound 0.000949 µM, first compound 0.1 µM
[3] = second compound 0.000949 µM, first compound 0.316 µM
[4] = second compound 0.000949 µM, first compound 1 µM
[5] = second compound 0.000949 µM, first compound 3.16 µM
[6] = second compound 0.000949 µM, first compound 10 µM
[7] = second compound 0.003 µM, first compound 0.0316 µM
[8] = second compound 0.003 µM, first compound 0.1 µM
[9] = second compound 0.003 µM, first compound 0.316 µM
[10] = second compound 0.003 µM, first compound 1 µM
[11] = second compound 0.003 µM, first compound 3.16 µM
[12] = second compound 0.003 µM, first compound 10 µM
[13] = second compound 0.00949 µM, first compound 0.0316 µM
[14] = second compound 0.00949 µM, first compound 0.1 µM
[15] = second compound 0.00949 µM, first compound 0.316 µM
[16] = second compound 0.00949 µM, first compound 1 µM
[17] = second compound 0.00949 µM, first compound 3.16 µM
[18] = second compound 0.00949 µM, first compound 10 µM
[19] = second compound 0.03 µM, first compound 0.0316 µM
[20] = second compound 0.03 µM, first compound 0.1 µM
[21] = second compound 0.03 µM, first compound 0.316 µM
[22] = second compound 0.03 µM, first compound 1 µM
[23] = second compound 0.03 µM, first compound 3.16 µM
[24] = second compound 0.03 µM, first compound 10 µM
[25] = second compound 0.0949 µM, first compound 0.0316 µM
[26] = second compound 0.0949 µM, first compound 0.1 µM
[27] = second compound 0.0949 µM, first compound 0.316 µM
[28] = second compound 0.0949 µM, first compound 1 µM
[29] = second compound 0.0949 µM, first compound 3.16 µM
[30] = second compound 0.0949 µM, first compound 10 µM
[31] = second compound 0.3 µM, first compound 0.0316 µM
[32] = second compound 0.3 µM, first compound 0.1 µM
[33] = second compound 0.3 µM, first compound 0.316 µM
[34] = second compound 0.3 µM, first compound 1 µM
[35] = second compound 0.3 µM, first compound 3.16 µM
[36] = second compound 0.3 µM, first compound 10 µM
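Note: viability read after seven days of drug exposure.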
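Throughout, for viability, T/C: 100% = DMSO vehicle control viability.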

Q: CC1(O)CCCC1n1c(=O)c(C(F)F)cc2cnc(NC3CCN(S(C)(=O)=O)CC3)nc21 (stereo unspecified) + CCn1c(-c2cccnc2C(C)OC)c2c3cc(ccc31)N1CCOC(CC(NC(=O)C(C(C)C)N(C)C(=O)C3(F)CCN(C(=O)C#CC(C)(C)N(C)C)CC3)C(=O)N3CCCC(N3)C(=O)OCC(C)(C)C2)C1 was tested. Which IC50 (second compound 0.000949 µM) did it give?
A: > 10000 nM

Q: And the IC50 (second compound 0.003 µM)?
A: > 10000 nM

Q: What about the IC50 (second compound 0.00949 µM) of the same compound?
A: > 10000 nM

Q: What about the IC50 (second compound 0.03 µM) of the same compound?
A: > 10000 nM

Q: What about the IC50 (second compound 0.0949 µM) of the same compound?
A: > 10000 nM

Q: What about the IC50 (second compound 0.3 µM) of the same compound?
A: 9980 nM

Q: And the viability, T/C [1]?
A: 102%

Q: What about the viability, T/C [2] of the same compound?
A: 104%

Q: What about the viability, T/C [3] of the same compound?
A: 90.7%

Q: And the viability, T/C [4]?
A: 104%

Q: What about the viability, T/C [5] of the same compound?
A: 93.1%

Q: What about the viability, T/C [6] of the same compound?
A: 79.4%

Q: What about the viability, T/C [7] of the same compound?
A: 102%

Q: And the viability, T/C [8]?
A: 98.7%

Q: What about the viability, T/C [9] of the same compound?
A: 95.9%

Q: And the viability, T/C [10]?
A: 103%

Q: What about the viability, T/C [11] of the same compound?
A: 125%

Q: What about the viability, T/C [12] of the same compound?
A: 86.3%

Q: And the viability, T/C [13]?
A: 108%

Q: What about the viability, T/C [14] of the same compound?
A: 80.8%

Q: And the viability, T/C [15]?
A: 97.5%

Q: What about the viability, T/C [16] of the same compound?
A: 87.6%

Q: What about the viability, T/C [17] of the same compound?
A: 124%

Q: And the viability, T/C [18]?
A: 88.6%

Q: What about the viability, T/C [19] of the same compound?
A: 90.2%

Q: What about the viability, T/C [20] of the same compound?
A: 80%

Q: And the viability, T/C [21]?
A: 81.3%

Q: What about the viability, T/C [22] of the same compound?
A: 97.9%

Q: And the viability, T/C [23]?
A: 115%

Q: And the viability, T/C [24]?
A: 73.6%

Q: What about the viability, T/C [25] of the same compound?
A: 77.3%

Q: And the viability, T/C [26]?
A: 95.7%

Q: And the viability, T/C [27]?
A: 89.4%

Q: What about the viability, T/C [28] of the same compound?
A: 113%

Q: What about the viability, T/C [29] of the same compound?
A: 124%

Q: And the viability, T/C [30]?
A: 71.3%

Q: And the viability, T/C [31]?
A: 77%

Q: And the viability, T/C [32]?
A: 94%

Q: What about the viability, T/C [33] of the same compound?
A: 85%

Q: And the viability, T/C [34]?
A: 95.7%

Q: And the viability, T/C [35]?
A: 95.9%

Q: What about the viability, T/C [36] of the same compound?
A: 49.9%

Q: How did the IC50 (second compound 0.000949 µM) turn out when CCC(CC)c1cc(NC2CCC(N)C2)n2nccc2n1 (stereo unspecified) + CCn1c(-c2cccnc2C(C)OC)c2c3cc(ccc31)N1CCOC(CC(NC(=O)C(C(C)C)N(C)C(=O)C3(F)CCN(C(=O)C#CC(C)(C)N(C)C)CC3)C(=O)N3CCCC(N3)C(=O)OCC(C)(C)C2)C1 was run?
A: 1880 nM

Q: And the IC50 (second compound 0.003 µM)?
A: 1810 nM

Q: And the IC50 (second compound 0.00949 µM)?
A: 1800 nM

Q: What about the IC50 (second compound 0.03 µM) of the same compound?
A: 1900 nM

Q: What about the IC50 (second compound 0.0949 µM) of the same compound?
A: 1660 nM

Q: What about the IC50 (second compound 0.3 µM) of the same compound?
A: 1460 nM

Q: And the viability, T/C [1]?
A: 82.4%

Q: And the viability, T/C [2]?
A: 104%

Q: And the viability, T/C [3]?
A: 100%

Q: What about the viability, T/C [4] of the same compound?
A: 94.6%

Q: And the viability, T/C [5]?
A: 13.2%

Q: And the viability, T/C [6]?
A: 12.6%

Q: What about the viability, T/C [7] of the same compound?
A: 106%

Q: And the viability, T/C [8]?
A: 88.4%

Q: What about the viability, T/C [9] of the same compound?
A: 100%

Q: And the viability, T/C [10]?
A: 81.5%

Q: And the viability, T/C [11]?
A: 20.3%

Q: And the viability, T/C [12]?
A: 9.28%

Q: What about the viability, T/C [13] of the same compound?
A: 82.2%

Q: And the viability, T/C [14]?
A: 82.4%

Q: What about the viability, T/C [15] of the same compound?
A: 111%

Q: What about the viability, T/C [16] of the same compound?
A: 87.9%

Q: And the viability, T/C [17]?
A: 13.3%

Q: What about the viability, T/C [18] of the same compound?
A: 10.4%

Q: And the viability, T/C [19]?
A: 86.7%

Q: And the viability, T/C [20]?
A: 90.8%

Q: And the viability, T/C [21]?
A: 97.6%

Q: What about the viability, T/C [22] of the same compound?
A: 90.5%

Q: What about the viability, T/C [23] of the same compound?
A: 17.7%

Q: And the viability, T/C [24]?
A: 12.2%

Q: What about the viability, T/C [25] of the same compound?
A: 89.2%

Q: What about the viability, T/C [26] of the same compound?
A: 83.1%

Q: What about the viability, T/C [27] of the same compound?
A: 86.8%

Q: And the viability, T/C [28]?
A: 78.8%

Q: What about the viability, T/C [29] of the same compound?
A: 13.3%

Q: What about the viability, T/C [30] of the same compound?
A: 11.5%

Q: What about the viability, T/C [31] of the same compound?
A: 85.3%

Q: And the viability, T/C [32]?
A: 77%

Q: What about the viability, T/C [33] of the same compound?
A: 85.2%

Q: And the viability, T/C [34]?
A: 68.3%

Q: What about the viability, T/C [35] of the same compound?
A: 12.6%

Q: And the viability, T/C [36]?
A: 11%

Q: How did the IC50 (second compound 0.000949 µM) turn out when CCN1CCN(Cc2ccc(Nc3ncc(F)c(-c4cc(F)c5nc(C)n(C(C)C)c5c4)n3)nc2)CC1 + CCn1c(-c2cccnc2C(C)OC)c2c3cc(ccc31)N1CCOC(CC(NC(=O)C(C(C)C)N(C)C(=O)C3(F)CCN(C(=O)C#CC(C)(C)N(C)C)CC3)C(=O)N3CCCC(N3)C(=O)OCC(C)(C)C2)C1 was run?
A: > 1000 nM

Q: What about the IC50 (second compound 0.003 µM) of the same compound?
A: > 1000 nM

Q: What about the IC50 (second compound 0.00949 µM) of the same compound?
A: > 1000 nM

Q: What about the IC50 (second compound 0.03 µM) of the same compound?
A: > 1000 nM

Q: What about the IC50 (second compound 0.0949 µM) of the same compound?
A: > 1000 nM

Q: And the IC50 (second compound 0.3 µM)?
A: > 1000 nM

Q: And the viability, T/C (second compound 0.000949 µM, first compound 0.00316 µM)?
A: 109%

Q: And the viability, T/C (second compound 0.000949 µM, first compound 0.01 µM)?
A: 88.1%

Q: And the viability, T/C [1]?
A: 84.9%

Q: What about the viability, T/C [2] of the same compound?
A: 74.2%

Q: And the viability, T/C [3]?
A: 99.1%

Q: What about the viability, T/C [4] of the same compound?
A: 87.1%

Q: What about the viability, T/C (second compound 0.003 µM, first compound 0.00316 µM) of the same compound?
A: 100%

Q: And the viability, T/C (second compound 0.003 µM, first compound 0.01 µM)?
A: 86.3%

Q: What about the viability, T/C [7] of the same compound?
A: 86.3%

Q: What about the viability, T/C [8] of the same compound?
A: 82.3%

Q: What about the viability, T/C [9] of the same compound?
A: 86.2%

Q: What about the viability, T/C [10] of the same compound?
A: 93%

Q: What about the viability, T/C (second compound 0.00949 µM, first compound 0.00316 µM) of the same compound?
A: 118%

Q: And the viability, T/C (second compound 0.00949 µM, first compound 0.01 µM)?
A: 84.3%

Q: And the viability, T/C [13]?
A: 87.1%

Q: What about the viability, T/C [14] of the same compound?
A: 88.9%

Q: What about the viability, T/C [15] of the same compound?
A: 91.2%

Q: And the viability, T/C [16]?
A: 53.9%

Q: What about the viability, T/C (second compound 0.03 µM, first compound 0.00316 µM) of the same compound?
A: 96.6%

Q: And the viability, T/C (second compound 0.03 µM, first compound 0.01 µM)?
A: 88.1%

Q: And the viability, T/C [19]?
A: 74.4%

Q: And the viability, T/C [20]?
A: 84.4%

Q: What about the viability, T/C [21] of the same compound?
A: 107%

Q: What about the viability, T/C [22] of the same compound?
A: 90.7%

Q: And the viability, T/C (second compound 0.0949 µM, first compound 0.00316 µM)?
A: 99.2%

Q: What about the viability, T/C (second compound 0.0949 µM, first compound 0.01 µM) of the same compound?
A: 79%

Q: And the viability, T/C [25]?
A: 91.8%

Q: And the viability, T/C [26]?
A: 87.3%

Q: And the viability, T/C [27]?
A: 60.6%

Q: What about the viability, T/C [28] of the same compound?
A: 76.6%

Q: And the viability, T/C (second compound 0.3 µM, first compound 0.00316 µM)?
A: 87.8%

Q: And the viability, T/C (second compound 0.3 µM, first compound 0.01 µM)?
A: 83.2%

Q: What about the viability, T/C [31] of the same compound?
A: 84.9%

Q: What about the viability, T/C [32] of the same compound?
A: 79%

Q: What about the viability, T/C [33] of the same compound?
A: 65.9%

Q: What about the viability, T/C [34] of the same compound?
A: 60.6%
